PubChem BioAssay (NCI)
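Interpolation was linear, between the two tested concentrations surrounding the appropriate level; five concentrations were tested over 48 hours in 96-well plates. At the GI50, growth is halved. TGI: concentration producing complete growth inhibition.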

Assays:
Assay in all cases: NCI anticancer screen, dose series, 48 h
RXF 393 renal = tested on: RXF 393 renal
OVCAR-4 ovarian = tested on: OVCAR-4 ovarian
A549 NSCLC = tested on: A549 NSCLC
UACC-257 melanoma = tested on: UACC-257 melanoma
UACC-62 melanoma = tested on: UACC-62 melanoma
NCI-H522 lung = tested on: NCI-H522 lung
ACHN renal = tested on: ACHN renal
MCF7 breast = tested on: MCF7 breast
OVCAR-5 ovarian = tested on: OVCAR-5 ovarian
SW-620 colon = tested on: SW-620 colon

Structure (SMILES) | GI50 (RXF 393 renal) | TGI (RXF 393 renal) | GI50 (OVCAR-4 ovarian) | TGI (OVCAR-4 ovarian) | GI50 (A549 NSCLC) | TGI (A549 NSCLC) | GI50 (UACC-257 melanoma) | TGI (UACC-257 melanoma) | GI50 (UACC-62 melanoma) | TGI (UACC-62 melanoma) | GI50 (NCI-H522 lung) | TGI (NCI-H522 lung) | GI50 (ACHN renal) | TGI (ACHN renal) | GI50 (MCF7 breast) | TGI (MCF7 breast) | GI50 (OVCAR-5 ovarian) | TGI (OVCAR-5 ovarian) | GI50 (SW-620 colon) | TGI (SW-620 colon)
Cn1c(=O)c(Oc2ccc(F)cc2F)cc2cnc(NCC(C)(C)O)nc21 | > 25 µM | > 25 µM | > 25 µM | > 25 µM | > 25 µM | > 25 µM | > 25 µM | > 25 µM | > 25 µM | > 25 µM | > 25 µM | > 25 µM | > 25 µM | > 25 µM | > 25 µM | > 25 µM | > 25 µM | > 25 µM | > 25 µM | > 25 µM
COc1c(B(O)O)cccc1-c1nc2c(F)cc3n[nH]c(C)c3c2c2c1CCCC2 | 0.044 µM | 0.924 µM | 2.71 µM | > 42.1 µM | 1.13 µM | > 50 µM | 2.08 µM | > 40.8 µM | 1.55 µM | 8.39 µM | 1.11 µM | 8.81 µM | 0.534 µM | > 50 µM | 1.43 µM | > 50 µM | 1.08 µM | > 50 µM | 0.727 µM | > 50 µM
NC(=O)c1csc(-c2ccc(CO)o2)n1 |  | > 100 µM |  | > 100 µM |  | > 100 µM |  | > 100 µM |  | > 100 µM |  | > 100 µM |  | > 100 µM |  | > 100 µM |  | > 100 µM |  | > 100 µM
O=C(/C=C/C=C/c1ccc2c(c1)OCO2)N/N=C\c1ccc(O)cc1O | 1.74 µM | 6.88 µM | 0.459 µM | 9.82 µM | 2.93 µM | 33.8 µM | 3.06 µM | 15.9 µM | 1.63 µM | 7.08 µM | 2.9 µM | 15.3 µM | 1.99 µM | 13.1 µM | 2.6 µM | 13.7 µM | 3.87 µM | 27.4 µM | 2.83 µM | 19.9 µM
CC(=O)Nc1cc2c3c(cccc3c1)-c1ccccc1-2 | 15.8 µM | 34.9 µM | > 100 µM | > 100 µM | 3.72 µM | > 100 µM | 90.3 µM | > 100 µM | 40 µM | > 100 µM | > 100 µM | > 100 µM | 19.2 µM | 52.2 µM | > 100 µM | > 100 µM | 16.7 µM | 35.7 µM | 95.6 µM | > 100 µM
Nc1n[nH]c2ccc([C@@H]3Nc4ccc5cn[nH]c5c4[C@H]4C5CCC(C5)[C@@H]34)cc12 (stereo not given in full) | 0.236 µM | 0.724 µM | 2.63 µM | > 100 µM | 0.541 µM | > 100 µM | 12.5 µM | > 100 µM | 0.389 µM | 34.3 µM | 0.385 µM | 54.6 µM | 0.797 µM | > 91.9 µM | 0.347 µM | > 76.8 µM | 1.14 µM | 99.3 µM | 0.401 µM | > 100 µM
Cc1c(Cl)c(C)c(Cl)c(O)c1Cl |  | > 100 µM |  | > 100 µM |  | 71.9 µM |  | 87 µM |  | 37.4 µM |  | 50.7 µM |  | 72.5 µM |  | > 100 µM |  | > 100 µM |  | > 100 µM
COC(=O)c1cccc(NC(=O)c2ccc(NC3=C(Cl)C(=O)N(Cc4ccccc4)C3=O)cc2)c1 | 13.9 µM | 60.2 µM | 16.1 µM | 56.1 µM | 17.5 µM | 48.7 µM | 15.4 µM | 50.2 µM | 11.7 µM | 25.4 µM | 7.52 µM | 32.8 µM |  |  | 22.3 µM | 49.7 µM | 3.63 µM | 29.4 µM | 22.3 µM | 86.5 µM
Nc1cc(N)c2nc(NCCc3ccc(Cl)c(Cl)c3)cnc2c1 | 13.8 µM | 30.2 µM | 1.81 µM | 3.26 µM | 17.7 µM | 34.2 µM |  |  | 14.1 µM | 27.8 µM | 12.6 µM | 33.7 µM | 14.8 µM | 28 µM | 3.08 µM | 13.3 µM | 20 µM | 34.6 µM | 16.2 µM | 32 µM
COc1cc(N2CCC(N)CC2)ccc1Nc1ncc(Cl)c(-c2c[nH]c3ccccc23)n1 | 0.338 µM | 1.41 µM | 0.235 µM | 3.66 µM | 0.248 µM | 1.65 µM | 1.02 µM | 2.34 µM |  |  | 0.447 µM | 1.85 µM | 0.292 µM | 1.94 µM | 0.0283 µM | 1.41 µM | 0.137 µM | 2.11 µM | 0.183 µM | 1.44 µM
CCN(CC)CC(O)c1cc(-c2ccc(Cl)cc2)nc2c(C)c(Cl)ccc12 (stereo not given) | 1.71 µM | 3.14 µM | 1.9 µM | 3.35 µM |  |  | 2.12 µM | 3.81 µM | 1.84 µM | 3.39 µM | 1.85 µM | 3.29 µM | 1.63 µM | 3.03 µM | 1.5 µM | 2.9 µM | 1.74 µM | 3.37 µM |  | 
